Assay results as given in patent publication US20240050428A1 (Cullgen (Shanghai), Inc., priority 2020, published 2024).
Like-named read-outs stand apart in the source and are kept apart here.

Key:
[1] = tested on: MV4;11 cells; assay: Cell viability assay (CellTiter-Glo) in MV4;11 cells, alone or with gilteritinib; assay type: cell-based; settings: Homo sapiens, MV4;11 cells, three days, CellTiter-Glo, read-out: MV4
[2] = tested on: MOLM-13 cells; assay: Cell viability assay (CellTiter-Glo) in MOLM-13 cells, alone or with gilteritinib; assay type: cell-based; settings: Homo sapiens, MOLM-13 cells, three days, CellTiter-Glo
[3] = 72 h, compound alone (without gilteritinib), 11 IC50
[4] = 72 h, with gilteritinib 10 nM, 11 IC50 gilteritinib
[5] = 72 h, compound alone (without gilteritinib), read-out: MOLM-13 IC50
[6] = 72 h, with gilteritinib 20 nM, read-out: MOLM-13 IC50 gilteritinib
[7] = MV4-11, 72 h, compound alone (without gilteritinib), 11 IC50
[8] = MV4-11, 72 h, with gilteritinib 10 nM, 11 IC50 gilteritinib
[9] = MOLM-13, 72 h, compound alone (without gilteritinib), read-out: MOLM-13 IC50
[10] = MOLM-13, 72 h, with gilteritinib 20 nM, read-out: MOLM-13 IC50 gilteritinib

O=C1CCC(N2C(=O)c3ccc(NCCCC(=O)N4CCN(c5ccccn5)CC4)cc3C2=O)C(=O)N1 (stereo not drawn) [GS-318, 2-(2,6-Dioxopiperidin-3-yl)-5-((4-oxo-4-(4-(pyridin-2-yl)piperazin-1-yl)butyl)amino)isoindoline-1,3-dione]
IC50 [1, 3]: 0.1 to 1 µM | IC50 [1, 4]: 0.01 to 0.1 µM | IC50 [2, 5]: > 1 µM | IC50 [2, 6]: 0.01 to 0.1 µM

O=C1CCC(N2C(=O)c3ccc(NCCCC(=O)N4CCN(c5ccccc5)CC4)cc3C2=O)C(=O)N1 (stereo not drawn) [GS-319, 2-(2,6-Dioxopiperidin-3-yl)-5-((4-oxo-4-(4-phenylpiperazin-1-yl)butyl)amino)isoindoline-1,3-dione]
IC50 [1, 3]: > 1 µM | IC50 [1, 4]: > 1 µM | IC50 [2, 5]: > 1 µM | IC50 [2, 6]: 0.01 to 0.1 µM

CN(c1ccccc1)C1CCN(CC(=O)NCCNc2ccc3c(c2)C(=O)N(C2CCC(=O)NC2=O)C3=O)CC1 (stereo not drawn) [GS-320]
IC50 [1, 3]: > 1 µM | IC50 [1, 4]: > 1 µM | IC50 [2, 5]: > 1 µM | IC50 [2, 6]: 0.1 to 1 µM

CN(c1ccccn1)C1CCN(CC(=O)NCCNc2ccc3c(c2)C(=O)N(C2CCC(=O)NC2=O)C3=O)CC1 (stereo not drawn) [GS-321, N-(2-((2-(2,6-Dioxopiperidin-3-yl)-1,3-dioxoisoindolin-5-yl)amino)ethyl)-2-(4-(methyl(pyridin-2-yl)amino)piperidin-1-yl)acetamide]
IC50 [1, 7]: > 1 µM | IC50 [1, 8]: > 1 µM | IC50 [2, 9]: > 1 µM | IC50 [2, 10]: 0.1 to 1 µM

CN(c1ccc2[nH]ccc2n1)C1CCN(CC(=O)NCCNc2ccc3c(c2)C(=O)N(C2CCC(=O)NC2=O)C3=O)CC1 (stereo not drawn) [GS-322, N-(2-((2-(2,6-Dioxopiperidin-3-yl)-1,3-dioxoisoindolin-5-yl)amino)ethyl)-2-(4-(methyl(1H-pyrrolo[3,2-b]pyridin-5-yl)amino)piperidin-1-yl)acetamide]
IC50 [1, 7]: > 1 µM | IC50 [1, 8]: > 1 µM | IC50 [2, 9]: > 1 µM | IC50 [2, 10]: > 1 µM

O=C1CCC(N2C(=O)c3ccc(NCCCCC(=O)N4CCC(n5cc(-c6cnc7ccccc7n6)cn5)CC4)cc3C2=O)C(=O)N1 (stereo not drawn) [GS-323, 2-(2,6-Dioxopiperidin-3-yl)-5-((5-oxo-5-(4-(4-(quinoxalin-2-yl)-1H-pyrazol-1-yl)piperidin-1-yl)pentyl)amino)isoindoline-1,3-dione]
IC50 [1, 7]: 0.1 to 1 µM | IC50 [1, 8]: < 0.01 µM | IC50 [2, 9]: > 1 µM | IC50 [2, 10]: < 0.01 µM

O=C1CCC(N2C(=O)c3ccc(NCCOCCC(=O)N4CCC(n5cc(-c6cnc7ccccc7n6)cn5)CC4)cc3C2=O)C(=O)N1 (stereo not drawn) [GS-324, 2-(2,6-Dioxopiperidin-3-yl)-5-((2-(3-oxo-3-(4-(4-(quinoxalin-2-yl)-1H-pyrazol-1-yl)piperidin-1-yl)propoxy)ethyl)amino)isoindoline-1,3-dione]
IC50 [1, 7]: > 1 µM | IC50 [1, 8]: 0.1 to 1 µM | IC50 [2, 9]: > 1 µM | IC50 [2, 10]: 0.01 to 0.1 µM

O=C1CCC(N2C(=O)c3ccc(NC(=O)CCCCC(=O)N4CCC(n5cc(-c6cnc7ccccc7n6)cn5)CC4)cc3C2=O)C(=O)N1 (stereo not drawn) [GS-325, N-(2-(2,6-Dioxopiperidin-3-yl)-1,3-dioxoisoindolin-5-yl)-6-oxo-6-(4-(4-(quinoxalin-2-yl)-1H-pyrazol-1-yl)piperidin-1-yl)hexanamide]
IC50 [1, 7]: > 1 µM | IC50 [1, 8]: 0.1 to 1 µM | IC50 [2, 9]: > 1 µM | IC50 [2, 10]: 0.1 to 1 µM

O=C1CCC(N2C(=O)c3ccc(NCCCCCCN4CCC(n5cc(-c6cnc7ccccc7n6)cn5)CC4)cc3C2=O)C(=O)N1 (stereo not drawn) [GS-326, 2-(2,6-Dioxopiperidin-3-yl)-5-((6-(4-(4-(quinoxalin-2-yl)-1H-pyrazol-1-yl)piperidin-1-yl)hexyl)amino)isoindoline-1,3-dione]
IC50 [1, 7]: > 1 µM | IC50 [1, 8]: > 1 µM | IC50 [2, 9]: > 1 µM | IC50 [2, 10]: 0.1 to 1 µM

O=C1CCC(N2C(=O)c3ccc(NC(=O)CCCC(=O)N4CCC(n5cc(-c6cnc7ccccc7n6)cn5)CC4)cc3C2=O)C(=O)N1 (stereo not drawn) [GS-327, N-(2-(2,6-Dioxopiperidin-3-yl)-1,3-dioxoisoindolin-5-yl)-5-oxo-5-(4-(4-(quinoxalin-2-yl)-1H-pyrazol-1-yl)piperidin-1-yl)pentanamide]
IC50 [1, 7]: > 1 µM | IC50 [1, 8]: 0.1 to 1 µM | IC50 [2, 9]: > 1 µM | IC50 [2, 10]: > 1 µM

O=C1CCC(N2C(=O)c3ccc(NCCC[C@H]4C[C@H](n5cc(-c6cc(Cl)ccn6)cn5)C4)cc3C2=O)C(=O)N1 (stereo partly drawn) [GS-328, 5-((3-(trans-3-(4-(4-Chloropyridin-2-yl)-1H-pyrazol-1-yl)cyclobutyl)propyl)amino)-2-(2,6-dioxopiperidin-3-yl)isoindoline-1,3-dione]
IC50 [1, 7]: 0.1 to 1 µM | IC50 [1, 8]: 0.01 to 0.1 µM | IC50 [2, 9]: > 1 µM | IC50 [2, 10]: 0.01 to 0.1 µM

O=C1CCC(N2Cc3cc(OCCCCCC(=O)N4CCN(c5ccccc5)CC4)ccc3C2=O)C(=O)N1 (stereo not drawn) [GS-329, 3-(1-Oxo-5-((6-oxo-6-(4-phenylpiperazin-1-yl)hexyl)oxy)isoindolin-2-yl)piperidine-2,6-dione]
IC50 [1, 3]: > 1 µM | IC50 [1, 4]: > 1 µM | IC50 [2, 5]: > 1 µM | IC50 [2, 6]: 0.1 to 1 µM

O=C1CCC(N2C(=O)c3ccc(NC(=O)COCCC(=O)N4CCC(n5cc(-c6cnc7ccccc7n6)cn5)CC4)cc3C2=O)C(=O)N1 (stereo not drawn) [GS-330, N-(2-(2,6-Dioxopiperidin-3-yl)-1,3-dioxoisoindolin-5-yl)-2-(3-oxo-3-(4-(4-(quinoxalin-2-yl)-1H-pyrazol-1-yl)piperidin-1-yl)propoxy)acetamide]
IC50 [1, 7]: > 1 µM | IC50 [1, 8]: > 1 µM | IC50 [2, 9]: > 1 µM | IC50 [2, 10]: > 1 µM

O=C1CCC(N2C(=O)c3ccc(NCCCCCCN4CCC(O)CC4)cc3C2=O)C(=O)N1 (stereo not drawn) [GS-331, 2-(2,6-Dioxopiperidin-3-yl)-5-((6-(4-hydroxypiperidin-1-yl)hexyl)amino)isoindoline-1,3-dione]
IC50 [1, 7]: > 1 µM | IC50 [1, 8]: > 1 µM | IC50 [2, 9]: > 1 µM | IC50 [2, 10]: 0.1 to 1 µM

O=C(CN1CCC(N2CCN(c3ccccn3)CC2)C1)NCc1ccc2c(c1)C(=O)N(C1CCC(=O)NC1=O)C2=O (stereo not drawn) [GS-332, N-((2-(2,6-Dioxopiperidin-3-yl)-1,3-dioxoisoindolin-5-yl)methyl)-2-(3-(4-(pyridin-2-yl)piperazin-1-yl)pyrrolidin-1-yl)acetamide]
IC50 [1, 7]: > 1 µM | IC50 [1, 8]: > 1 µM | IC50 [2, 9]: > 1 µM | IC50 [2, 10]: > 1 µM

O=C1CCC(N2C(=O)c3ccc(NCCCCCC(=O)N4CCC(O)(c5ccccc5)CC4)cc3C2=O)C(=O)N1 (stereo not drawn) [GS-333, 2-(2,6-Dioxopiperidin-3-yl)-5-((6-(4-hydroxy-4-phenylpiperidin-1-yl)-6-oxohexyl)amino)isoindoline-1,3-dione]
IC50 [1, 7]: > 1 µM | IC50 [1, 8]: 0.1 to 1 µM | IC50 [2, 9]: > 1 µM | IC50 [2, 10]: 0.1 to 1 µM

O=C1CCC(N2C(=O)c3ccc(NCCCCCC(=O)N4CC(Oc5ccccc5)C4)cc3C2=O)C(=O)N1 (stereo not drawn) [GS-334, 2-(2,6-Dioxopiperidin-3-yl)-5-((6-oxo-6-(3-phenoxyazetidin-1-yl)hexyl)amino)isoindoline-1,3-dione]
IC50 [1, 7]: > 1 µM | IC50 [1, 8]: > 1 µM | IC50 [2, 9]: > 1 µM | IC50 [2, 10]: 0.1 to 1 µM

O=C1CCC(N2C(=O)c3ccc(NCCCCCCN4CCC(C5CCC(O)CC5)CC4)cc3C2=O)C(=O)N1 (stereo not drawn) [GS-335, 2-(2,6-Dioxopiperidin-3-yl)-5-((6-(4-(4-hydroxycyclohexyl)piperidin-1-yl)hexyl)amino)isoindoline-1,3-dione]
IC50 [1, 7]: > 1 µM | IC50 [1, 8]: > 1 µM | IC50 [2, 9]: > 1 µM | IC50 [2, 10]: 0.1 to 1 µM
